The text below walks through data of ChEMBL document CHEMBL3272135, “Quantitative relationships between steroid structure and binding to putative progesterone receptors” (J Med Chem, 1977).

The target in experiment [1] is T1, Progesterone receptor (Ovis aries) (UniProt Q28590).
T1 sequence (whole entry): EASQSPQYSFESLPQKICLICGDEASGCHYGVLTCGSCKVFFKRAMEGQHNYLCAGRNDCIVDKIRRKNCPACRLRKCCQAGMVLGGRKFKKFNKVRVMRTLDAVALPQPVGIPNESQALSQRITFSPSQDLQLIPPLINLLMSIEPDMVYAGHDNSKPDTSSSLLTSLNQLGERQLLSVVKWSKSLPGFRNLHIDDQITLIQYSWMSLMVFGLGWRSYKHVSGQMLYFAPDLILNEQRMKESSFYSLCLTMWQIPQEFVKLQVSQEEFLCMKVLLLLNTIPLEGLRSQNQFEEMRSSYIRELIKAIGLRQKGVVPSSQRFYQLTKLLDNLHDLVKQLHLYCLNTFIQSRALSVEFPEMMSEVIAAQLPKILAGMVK
Briefly: Relative binding affinity to sheep progesterone receptor.

Experiment [2] concerns the target T2, Progesterone receptor (Oryctolagus cuniculus) (UniProt P06186).
T2 sequence (whole entry): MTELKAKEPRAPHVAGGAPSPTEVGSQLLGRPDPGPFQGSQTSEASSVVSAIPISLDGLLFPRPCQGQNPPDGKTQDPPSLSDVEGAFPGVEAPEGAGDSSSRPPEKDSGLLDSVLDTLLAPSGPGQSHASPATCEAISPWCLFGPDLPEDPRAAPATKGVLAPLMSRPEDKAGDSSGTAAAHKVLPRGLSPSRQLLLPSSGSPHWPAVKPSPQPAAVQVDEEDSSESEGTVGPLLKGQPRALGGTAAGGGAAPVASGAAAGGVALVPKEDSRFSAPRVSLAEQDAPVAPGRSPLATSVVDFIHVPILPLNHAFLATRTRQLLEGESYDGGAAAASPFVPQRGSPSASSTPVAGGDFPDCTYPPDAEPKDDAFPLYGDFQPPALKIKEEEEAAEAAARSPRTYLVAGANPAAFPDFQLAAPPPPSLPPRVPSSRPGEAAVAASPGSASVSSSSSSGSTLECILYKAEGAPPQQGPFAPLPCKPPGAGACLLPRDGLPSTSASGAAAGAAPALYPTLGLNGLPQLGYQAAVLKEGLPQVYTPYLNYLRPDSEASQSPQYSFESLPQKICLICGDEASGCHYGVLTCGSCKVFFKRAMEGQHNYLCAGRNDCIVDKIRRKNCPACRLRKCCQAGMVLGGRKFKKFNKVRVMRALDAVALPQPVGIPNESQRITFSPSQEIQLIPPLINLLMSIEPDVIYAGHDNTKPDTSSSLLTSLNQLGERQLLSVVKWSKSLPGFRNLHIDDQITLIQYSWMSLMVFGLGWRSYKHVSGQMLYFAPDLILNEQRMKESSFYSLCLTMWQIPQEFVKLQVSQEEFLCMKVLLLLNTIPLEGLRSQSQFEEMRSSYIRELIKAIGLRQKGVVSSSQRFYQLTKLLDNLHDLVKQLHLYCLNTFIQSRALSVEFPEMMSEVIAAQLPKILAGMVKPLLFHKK
Briefly: Relative binding affinity to rabbit progesterone receptor.

The species entered for the next experiment is Cavia porcellus. Briefly: Relative binding affinity to guinea pig progesterone receptor.
For experiment [3], the target named is T3, Progesterone receptor (Homo sapiens) (UniProt P06401).
T3 sequence (whole entry): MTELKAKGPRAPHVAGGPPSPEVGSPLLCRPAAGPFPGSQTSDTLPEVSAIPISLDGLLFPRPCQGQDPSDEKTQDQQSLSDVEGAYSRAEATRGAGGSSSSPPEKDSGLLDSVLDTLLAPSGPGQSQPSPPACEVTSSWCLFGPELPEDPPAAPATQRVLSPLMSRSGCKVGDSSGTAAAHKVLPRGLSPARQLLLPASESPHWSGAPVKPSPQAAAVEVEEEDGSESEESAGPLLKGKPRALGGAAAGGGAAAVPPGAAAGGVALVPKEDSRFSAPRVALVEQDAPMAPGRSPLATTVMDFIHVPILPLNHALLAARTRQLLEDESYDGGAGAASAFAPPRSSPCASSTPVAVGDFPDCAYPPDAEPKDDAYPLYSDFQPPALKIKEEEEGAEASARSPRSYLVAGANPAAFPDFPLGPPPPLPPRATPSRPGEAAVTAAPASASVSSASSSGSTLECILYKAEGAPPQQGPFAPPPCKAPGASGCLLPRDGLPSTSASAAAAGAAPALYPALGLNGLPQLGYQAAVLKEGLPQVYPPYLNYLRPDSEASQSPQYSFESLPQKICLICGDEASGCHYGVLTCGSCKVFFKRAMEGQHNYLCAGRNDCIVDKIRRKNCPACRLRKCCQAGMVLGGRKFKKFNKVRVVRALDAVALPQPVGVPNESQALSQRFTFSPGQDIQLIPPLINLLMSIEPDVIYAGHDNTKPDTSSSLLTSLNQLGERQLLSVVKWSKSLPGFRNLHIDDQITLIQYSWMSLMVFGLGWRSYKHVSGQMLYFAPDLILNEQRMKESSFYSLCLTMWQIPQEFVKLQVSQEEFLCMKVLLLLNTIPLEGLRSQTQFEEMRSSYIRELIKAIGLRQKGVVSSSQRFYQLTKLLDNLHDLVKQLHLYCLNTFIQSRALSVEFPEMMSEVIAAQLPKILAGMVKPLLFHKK

As for `C[C@]1(O)CC[C@H]2[C@@H]3CCC4=CCCC[C@@H]4[C@H]3CC[C@@]21C`, the log(RBA) in experiment [1] came to 0.778; in experiment [2], 1.3; in the experiment listed under Cavia porcellus it was 0.3; in experiment [3], 0.78.
The matching figures for `C=CC[C@]1(O)CC[C@H]2[C@@H]3CCC4=CCCC[C@@H]4[C@H]3CC[C@@]21C`: 0.6, 1.08, -0.7 and 0.48.
Take `CC(=O)[C@H]1CC[C@H]2[C@@H]3CCC4=CC(=O)CC[C@]4(C)[C@H]3C(=O)C[C@]12C`: the log(RBA) was -0.097 in experiment [1], 0.301 in experiment [2], 0 in the experiment listed under Cavia porcellus and 0 in experiment [3].
Turning to `C#C[C@]1(OC(C)=O)CC[C@H]2[C@@H]3CCC4=CCCC[C@@H]4[C@H]3CC[C@@]21C`, the log(RBA) in experiment [1] is -1; in experiment [2], 0; in the experiment filed under Cavia porcellus, -2; in experiment [3] it was -0.7.
In the same order, the values of `CC[C@]12CC[C@H]3[C@@H](CCC4=CC(=O)CC[C@@]43C)[C@@H]1CC[C@@H]2C(C)=O` are 1.04, 1.5, 1.63 and 1.43.
In the same order, the values of `C[C@]12CC[C@H]3[C@@H](CCC4=CC(=O)CC[C@@]43C)[C@@H]1CC[C@@H]2C(=O)CO` are 1.4, 1.4, 1.15 and 1.23.
In the same order, the values of `C[C@]12CCC(=O)C=C1CC[C@@H]1[C@@H]2CC[C@]2(C)C(=O)CC[C@@H]12` are -1, -1, -0.7 and -1.
Consider `C#C[C@]1(O)CC[C@H]2[C@@H]3CC[C@H]4C[C@@H](O)CC[C@@H]4[C@H]3CC[C@@]21C`, for which the log(RBA) in experiment [1] is -1.3; in experiment [2], -0.52; in the experiment listed under Cavia porcellus it was -2; in experiment [3], -0.7.
In the same order, the values of `CC(=O)[C@H]1CC[C@H]2[C@@H]3CCC4=CC(=O)CC[C@]4(C)[C@H]3CC(=O)[C@]12C` are -1, -0.221, -0.52 and -0.69.
In the same order, the values of `C#C[C@]1(O)CC[C@H]2[C@@H]3CC[C@@H]4C[C@H](O)CC[C@@H]4[C@H]3CC[C@@]21C` are -2, -1, -2 and -1.
The matching figures for `C[C@]12CCC(=O)C=C1CC[C@@H]1[C@@H]2[C@@H](O)C[C@@]2(C)[C@H]1CC[C@]2(O)C(=O)CO`: -1.3, -1, -1 and -1.
With `CC(=O)[C@H]1CC[C@H]2[C@@H]3CC[C@@H]4CC(=O)CC[C@]4(C)[C@H]3CC[C@]12C`, the log(RBA) came to 0.6 in experiment [1], 1.08 in experiment [2], 0.7 in the experiment listed under Cavia porcellus and 1.08 in experiment [3].
Regarding `C[C@]12C[C@H](O)[C@H]3[C@@H](CCC4=CC(=O)CC[C@@]43C)[C@@H]1CC[C@@H]2C(=O)CO`, the log(RBA) in experiment [1] was 0; in experiment [2] it was 0.02; in the experiment filed under Cavia porcellus it was 0.447; in experiment [3], 0.3.
In the same order, the values of `C#C[C@]1(O)CC[C@H]2[C@H]3[C@H](CC[C@@]21C)[C@H]1CCCC=C1C[C@H]3C` are 0.301, 0.954, -0.7 and 0.3.
In the same order, the values of `CC(=O)[C@H]1CC[C@H]2[C@@H]3CCC4=CC(=O)C=C[C@]4(C)[C@H]3CC[C@]12C` are 1.2, 1.3, 1.64 and 1.48.
The matching figures for `C#C[C@]1(O)CC[C@H]2[C@@H]3CCC4=CC(=O)CC[C@@H]4[C@H]3CC[C@@]21CC`: 2, 2.62, 1.43 and 2.22.
With `C#C[C@]1(O)CC[C@H]2[C@@H]3[C@H](C)CC4=C(CCC(=O)C4)[C@H]3CC[C@@]21C`, the log(RBA) in experiment [1] is 0.7; in experiment [2] it was 0.903; in the experiment filed under Cavia porcellus, -0.4; in experiment [3] it was 0.78.
In the same order, the values of `CC[C@@H]1C[C@H]2[C@@H]3CCC4=CC(=O)CC[C@@H]4[C@H]3CC[C@]2(C)[C@H]1C(=O)CF` are 2.08, 2.36, 1.6 and 2.23.
In the same order, the values of `CC(=O)O[C@]1(C(C)=O)CC[C@H]2[C@@H]3C=C(C)C4=CC(=O)CC[C@]4(C)[C@H]3CC[C@@]21C` are 1.51, 2, -0.3 and 1.94.
The matching figures for `CC(=O)[C@H]1CC[C@H]2[C@@H]3CCC4=CC(=O)CC[C@]4(C)[C@H]3[C@H](O)C[C@]12C`: -0.15, 0.301, -0.097 and 0.48.
Consider `C[C@]12CC[C@H]3[C@@H](CCC4=CC(=O)CC[C@@H]43)[C@@H]1CC[C@@H]2O`, for which the log(RBA) in experiment [1] came out at 1; in experiment [2], 1; in the experiment filed under Cavia porcellus, 1.6; in experiment [3] it was 1.14.
With `CC(=O)O[C@]1(C(C)=O)CC[C@H]2[C@@H]3C[C@H](C)C4=CC(=O)CC[C@]4(C)[C@H]3CC[C@@]21C`, the log(RBA) in experiment [1] was 1.86; in experiment [2] it was 2; in the experiment filed under Cavia porcellus, 1.11; in experiment [3], 2.29.
The matching figures for `CC(=O)[C@H]1CC[C@H]2[C@@H]3CC[C@H]4CC(=O)CC[C@]4(C)[C@H]3CC[C@]12C`: 1.48, 1.74, 1.4 and 1.48.
The matching figures for `CC(=O)[C@H]1CC[C@H]2[C@@H]3[C@H](C)CC4=CC(=O)CC[C@]4(C)[C@H]3CC[C@]12C`: 1.32, 1.61, 1.67 and 1.43.
In the same order, the values of `CC(=O)[C@H]1CC[C@H]2[C@@H]3CCC4=CC(=O)CC[C@]4(C)[C@H]3CC[C@]12C` are 2, 2, 2 and 2.
With `C#C[C@]1(O)CC[C@H]2[C@@H]3CC[C@@H]4C[C@@H](O)CC[C@@H]4[C@H]3CC[C@@]21C`, the log(RBA) is -0.7 in experiment [1], -1 in experiment [2], -1.09 in the experiment listed under Cavia porcellus and -0.52 in experiment [3].
